In PubChem BioAssay AID248 (DTP/NCI, 2004):
Several values for one entry are separate records, joined by “and”; a condition that tells them apart may be missing. Equal entries are not always repeated. Toxic doses and inconclusive results are not listed. Rule as the data show it: active = T/C of 150% or more; inactive = T/C below 125%.

Test system: L1210 leukemia ip in BDF1 mice, survival T/C
Test: NCI In Vivo Anticancer Drug Screen. Data for tumor model L1210 Leukemia (intraperitoneal) in B6D2F1 (BDF1) mice
Details: endpoint: mean survival time, higher = longer survival
How it was run: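 Transplantable tumor model; survival measured in treated vs vehicle control mice. Value = treated/control.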

[1] = dose: 50.0 mg/kg/injection, schedule: Q01DX001 (ip), vehicle: carboxymethylcellulose (CMC)
[2] = dose: 50.0 mg/kg/injection, schedule: Q01DX001 (ip), vehicle: saline
[3] = dose: 100.0 mg/kg/injection, schedule: Q01DX001 (ip), vehicle: saline
[4] = dose: 200.0 mg/kg/injection, schedule: Q01DX009 (ip), vehicle: saline
[5] = dose: 200.0 mg/kg/injection, schedule: Q01DX001 (ip), vehicle: saline
[6] = dose: 400.0 mg/kg/injection, schedule: Q01DX001 (ip), vehicle: saline
[7] = dose: 100.0 mg/kg/injection, schedule: Q01DX009 (ip), vehicle: saline with Tween-80
[8] = dose: 200.0 mg/kg/injection, schedule: Q01DX009 (ip), vehicle: saline with Tween-80
[9] = dose: 50.0 mg/kg/injection, schedule: Q01DX009 (ip), vehicle: Klucel (hydroxypropylcellulose) (HPC)
[10] = dose: 100.0 mg/kg/injection, schedule: Q01DX009 (ip), vehicle: Klucel (hydroxypropylcellulose) (HPC)
[11] = dose: 200.0 mg/kg/injection, schedule: Q01DX009 (ip), vehicle: Klucel (hydroxypropylcellulose) (HPC)
[12] = dose: 100.0 mg/kg/injection, schedule: Q04DX003 (ip), vehicle: Klucel (hydroxypropylcellulose) (HPC)
[13] = dose: 100.0 mg/kg/injection, schedule: Q04DX003 (ip), vehicle: saline
[14] = dose: 200.0 mg/kg/injection, schedule: Q04DX003 (ip), vehicle: Klucel (hydroxypropylcellulose) (HPC)
[15] = dose: 200.0 mg/kg/injection, schedule: Q04DX003 (ip), vehicle: saline
[16] = dose: 400.0 mg/kg/injection, schedule: Q01DX009 (ip), vehicle: Klucel (hydroxypropylcellulose) (HPC)
[17] = dose: 400.0 mg/kg/injection, schedule: Q04DX003 (ip), vehicle: saline
[18] = dose: 100.0 mg/kg/injection, schedule: Q01DX001 (ip), vehicle: carboxymethylcellulose (CMC)
[19] = dose: 200.0 mg/kg/injection, schedule: Q01DX001 (ip), vehicle: carboxymethylcellulose (CMC)
[20] = dose: 400.0 mg/kg/injection, schedule: Q01DX001 (ip), vehicle: carboxymethylcellulose (CMC)
[21] = dose: 100.0 mg/kg/injection, schedule: Q01DX009 (ip), vehicle: saline

Measured: T/C

CCOC(=O)C1CC(Cl)c2c(ccc3cc(OC)ccc23)N1 (stereo not drawn)
inactive: dose: 25.0 mg/kg/injection, schedule: Q01DX001 (ip), vehicle: carboxymethylcellulose (CMC) 100 % of control | dose: 25.0 mg/kg/injection, schedule: Q01DX009 (ip), vehicle: carboxymethylcellulose (CMC) 98 % of control and 92 % of control | dose: 25.0 mg/kg/injection, schedule: Q04DX002 (ip), vehicle: carboxymethylcellulose (CMC) 93 % of control and 95 % of control | dose: 25.0 mg/kg/injection, schedule: Q04DX003 (ip), vehicle: carboxymethylcellulose (CMC) 97 % of control | [1] 107 % of control | dose: 50.0 mg/kg/injection, schedule: Q01DX009 (ip), vehicle: carboxymethylcellulose (CMC) 100 % of control and 91 % of control | dose: 50.0 mg/kg/injection, schedule: Q04DX002 (ip), vehicle: carboxymethylcellulose (CMC) 101 % of control and 103 % of control | dose: 50.0 mg/kg/injection, schedule: Q04DX003 (ip), vehicle: carboxymethylcellulose (CMC) 95 % of control | dose: 100.0 mg/kg/injection, schedule: Q01DX009 (ip), vehicle: carboxymethylcellulose (CMC) 93 % of control | dose: 100.0 mg/kg/injection, schedule: Q04DX002 (ip), vehicle: carboxymethylcellulose (CMC) 95 % of control and 108 % of control | dose: 100.0 mg/kg/injection, schedule: Q04DX003 (ip), vehicle: carboxymethylcellulose (CMC) 95 % of control

CC(=O)C(C[CH2][Hg][Cl])C(C)=O
inactive: dose: 9.37 mg/kg/injection, schedule: Q01DX001 (ip), vehicle: other 96 % of control | dose: 18.75 mg/kg/injection, schedule: Q01DX001 (ip), vehicle: other 97 % of control | dose: 37.5 mg/kg/injection, schedule: Q01DX001 (ip), vehicle: other 100 % of control

C[N+]1(C)CCOC(O)(c2ccccc2)C1 (stereo not drawn)
inactive: dose: 25.0 mg/kg/injection, schedule: Q01DX001 (ip), vehicle: saline 88 % of control | [2] 98 % of control | [3] 95 % of control and 101 % of control

C[N+](C)(C)CCCCCCCCCC[N+](C)(C)CCCCCCCCCC[N+](C)(C)CCCCCCCCCC[N+](C)(C)C
inactive: dose: 25.0 micrograms/kg/injection, schedule: Q04DX003 (ip), vehicle: Klucel (hydroxypropylcellulose) (HPC) 96 % of control | dose: 50.0 micrograms/kg/injection, schedule: Q04DX003 (ip), vehicle: Klucel (hydroxypropylcellulose) (HPC) 97 % of control | dose: 100.0 micrograms/kg/injection, schedule: Q04DX003 (ip), vehicle: Klucel (hydroxypropylcellulose) (HPC) 97 % of control

CCCCCSc1nc(N)nc2nc[nH]c12
inactive: dose: 50.0 mg/kg/injection, schedule: Q01DX Z (ip), vehicle: methylcellulose (MC) 117 % of control | dose: 75.0 mg/kg/injection, schedule: Q01DX001 (ip), vehicle: saline 106 % of control | dose: 135.0 mg/kg/injection, schedule: Q01DX009 (ip), vehicle: saline 98 % of control | dose: 150.0 mg/kg/injection, schedule: Q01DX001 (ip), vehicle: saline 109 % of control | [4] 104 % of control | dose: 200.0 mg/kg/injection, schedule: Q01DX Z (ip), vehicle: methylcellulose (MC) 104 % of control | dose: 300.0 mg/kg/injection, schedule: Q01DX001 (ip), vehicle: saline 101 % of control | dose: 300.0 mg/kg/injection, schedule: Q01DX009 (ip), vehicle: saline 119 % of control

Oc1ccc(/C=N/Nc2nnc(N/N=C/c3ccc(O)c(O)c3)c3ccccc23)cc1O
inactive: [2] 97 % of control | [3] 92 % of control | [5] 97 % of control | [6] 97 % of control

O=C(COc1ccccc1)NC(=S)Nc1ccc(C(=O)O)cc1
inactive: dose: 100.0 mg/kg/injection, schedule: Q01DX001 (ip), vehicle: saline with Tween-80 97 % of control | [7] 102 % of control and 89 % of control | dose: 100.0 mg/kg/injection, schedule: Q04DX002 (ip), vehicle: saline with Tween-80 97 % of control and 104 % of control | dose: 200.0 mg/kg/injection, schedule: Q01DX001 (ip), vehicle: saline with Tween-80 95 % of control | [8] 105 % of control and 86 % of control | dose: 200.0 mg/kg/injection, schedule: Q04DX002 (ip), vehicle: saline with Tween-80 114 % of control and 90 % of control | dose: 400.0 mg/kg/injection, schedule: Q01DX001 (ip), vehicle: saline with Tween-80 101 % of control | dose: 400.0 mg/kg/injection, schedule: Q01DX009 (ip), vehicle: saline with Tween-80 97 % of control and 89 % of control | dose: 400.0 mg/kg/injection, schedule: Q04DX002 (ip), vehicle: saline with Tween-80 107 % of control and 90 % of control

NCCc1cnc(N=Nc2ccc(C(=O)O)cc2)[nH]1
inactive: [9] 89 % of control | [10] 89 % of control | [11] 87 % of control

O=C(O)C1C2CC(C(Br)C2Br)C1C(=O)O (stereo not drawn)
inactive: [3] 98 % of control | [10] 95 % of control | dose: 100.0 mg/kg/injection, schedule: Q01DX009 (ip), vehicle: acetone 98 % of control | [12] 100 % of control | [13] 94 % of control | [5] 95 % of control | [11] 97 % of control | dose: 200.0 mg/kg/injection, schedule: Q01DX009 (ip), vehicle: acetone 93 % of control | [14] 103 % of control | [15] 94 % of control | [6] 96 % of control | [16] 98 % of control | dose: 400.0 mg/kg/injection, schedule: Q01DX009 (ip), vehicle: acetone 104 % of control | dose: 400.0 mg/kg/injection, schedule: Q04DX003 (ip), vehicle: Klucel (hydroxypropylcellulose) (HPC) 105 % of control | [17] 91 % of control

CC(Br)C(=O)NC(CC(N)=O)C(=O)O (stereo not drawn)
inactive: [7] 93 % of control | [8] 91 % of control

O=[N+]([O-])c1cccnc1Cl
inactive: [9] 107 % of control | [10] 95 % of control | [12] 92 % of control | [11] 95 % of control | [14] 91 % of control

COC(=O)/C=C\C(=O)NC(C)(C)CC(C)(C)C
inactive: [1] 100 % of control | [18] 105 % of control | [19] 105 % of control | [20] 96 % of control

CCN(CC)CCCC(C)Nc1cccc2c1C(=O)c1ccccc1C2=O (stereo not drawn)
inactive: dose: 25.0 mg/kg/injection, schedule: Q01DX009 (ip), vehicle: saline 100 % of control | dose: 25.0 mg/kg/injection, schedule: Q04DX002 (ip), vehicle: saline 95 % of control | dose: 50.0 mg/kg/injection, schedule: Q01DX009 (ip), vehicle: saline 93 % of control | dose: 50.0 mg/kg/injection, schedule: Q04DX002 (ip), vehicle: saline 92 % of control | [21] 93 % of control | dose: 100.0 mg/kg/injection, schedule: Q04DX002 (ip), vehicle: saline 100 % of control and 92 % of control

CCN(CC)c1ccc(SC#N)cc1
inactive: [3] 101 % of control

COc1ccc(C(=O)c2ccc(OC)c(OC)c2C(=O)O)cc1
inactive: [13] 106 % of control | [15] 114 % of control | [17] 103 % of control

O=C(Cc1ccccc1)NCCc1ccc(-c2ccccc2)cc1
inactive: [18] 94 % of control | [19] 96 % of control | [20] 86 % of control

CC(=O)Nc1ccc(C(=O)O)cc1O
inactive: [13] 92 % of control | [15] 92 % of control | [17] 95 % of control

N=C(N)SCc1ccc([N+](=O)[O-])cc1
inactive: [3] 103 % of control | [5] 97 % of control

CCOC(=O)C(Br)C(=O)OCC
inactive: dose: 18.75 mg/kg/injection, schedule: Q01DX009 (ip), vehicle: saline with Tween-80 97 % of control

Cc1cccc(Cl)c1NC(=O)Nc1cc(Cl)ccc1O
inactive: [10] 107 % of control | [11] 93 % of control | [16] 100 % of control

O=C(O)CCC(=O)c1ccc2c(c1)CCCC2
inactive: dose: 3.13 mg/kg/injection, schedule: Q01DX009 (ip), vehicle: saline with Tween-80 95 % of control | dose: 6.25 mg/kg/injection, schedule: Q01DX009 (ip), vehicle: saline with Tween-80 92 % of control | dose: 12.5 mg/kg/injection, schedule: Q01DX009 (ip), vehicle: saline with Tween-80 93 % of control

COCCOCCOCCOCCOCCN
inactive: [21] 96 % of control | [4] 93 % of control | dose: 400.0 mg/kg/injection, schedule: Q01DX009 (ip), vehicle: saline 98 % of control
